Data from publication PMC10759609, “A novel PDPN antagonist peptide CY12-RP2 inhibits melanoma growth via Wnt/β-catenin and modulates the immune cells” (Journal of Experimental & Clinical Cancer Research : CR, 2024).
Peptide text beside a SMILES is read from it.

Columns and labels:
A875 cellular spheroids = experiment: 3D spheroid diameter, A875; type: cell-based; conditions: only at 200 μM, 5 days
Experimental: A375 and A875 cells were collected and suspended in Matrigel (Corning) with a density of 1.0 × 10^7 cells per mL. 3D spheroids were fabricate using cell-processing system that have two pumps. One pump was loaded with Matrigel and another with fluorocarbon oil (3 M NOVEC, HFE-7000). The flow rate of Matrigel was 20 μL/min and the fluorocarbon oil rate was 30 μL/min. The 3D spheroids were incubated at 37 °C with 5% CO2 after printing. Culturing medium was DMEM medium supplemented with 10% FBS, and 100 IU of penicillin and […] streptomycin. The medium was changed every 3 days. Afterward, the 3D spheroids were harvested for drug analysis.
Prepared melanoma cells spheroids were plated in 48-well plates. Following incubation for 3 days, the spheroids were exposed to different concentrations (0, 50, 100 and 200 μM) of CY12-RP2, and changes in spheroid diameter were detected after 5 days of treatment. Additionally, melanoma cell spheroids were treated with various concentrations of CY12-RP2 as described previously, and after 72 h, the spheroids were stained for immunofluorescence with caspase 3 primary antibody. The specific experimental procedures refer to the following immunofluorescence analysis. Additionally, we co-cultured peptide-stimulated PBMC with spheroids to determine the tumor-killing ability of activated PBMC.

[1] = tested on: immune cells in lungs and spleens; experiment: Immunofluorescence of immune cell infiltration, spleen and lung, lung metastasis model; type: in vivo, BALB/c mice
Experimental: Immunofluorescence analysis was used for antigen localization and quantification. For PDPN immunofluorescence staining, melanoma cells (A375, A875) were seeded in coverslips, cultured for 24 h, and fixed using 4% paraformaldehyde for 15 min at room temperature (RT). The cells were then permeabilized with 0.2% Triton X-100 in PBS for 10 min. Cells were blocked using 1% bovine serum albumin (BSA) in PBS for 30 min at RT, and incubated with the primary antibody overnight at 4 ℃. Afterwards, cells were washed three times with PBS containing 0.01% Triton X-100 for 5 min, and incubated with Alexa Fluor 568–conjugated secondary antibodies at RT for 1 h. Lastly, the nuclei were dyed with 4’,6-diamidino-2-phenylindole (DAPI) for 5 min at RT, and the slides were imaged using a NIKON laser scanning confocal microscope. To further verify the specificity binding ability of CY12-RP2 with PDPN, immunofluorescence was detected for analysis in melanoma cells. Briefly, A375 or A875 cells were incubated with CY12-RP2 at a concentration of 5 μM for 10 h at 37 ℃, and then washed with DMEM to remove the unbound peptide. The anti-PDPN primary antibody was then incubated for 4 h at RT. Further experimental procedures were performed as described above. To determine the immune cell infiltration and proportion changes in the lungs and spleens in the pulmonary metastasis mouse model, sequential frozen slices (12 μm) were prepared and incubated with CD3, CD4, CD8, Foxp3, CD56, F4/80, and CD11c primary antibodies for 1 h, and then incubated with Alexa Fluor 488-conjugated goat anti-mouse F(ab’)2 and Alexa Fluor 647-conjugated goat anti-mouse F(ab’)2 in PBS containing 1% BSA and 1% goat serum for 30 min. All incubations were conducted under coverslips at RT, and then repeatedly washed 3 times with PBS. Coverslips were mounted after staining cell nuclei with DAPI, and imaged using a NIKON laser scanning confocal microscope.

A875 cells = experiment: Transwell matrigel invasion, A875; type: cell-based; conditions: transwell matrigel, 0, 5, 25 μM, 48 h
Experimental: For invasion assay, matrigel (Corning, New York, USA) was coated on the upper surface of the upper chamber. The upper chamber was filled with DMEM medium containing 2% FBS, while the lower chamber contained a medium supplemented with 20% FBS. In brief, melanoma cells (A375 GFP, A875 GFP, A375 PDPN^−/−, and A875 PDPN^+/+ cells) were seeded in the upper chamber of the transwell plate (Corning, New York, USA) at about 5 × 10^4 cells/well with the medium as described above. For peptide functionality experiments, A375 and A875 cells were seeded in the upper chamber of the transwell plate at a density of 5 × 10^4 cells/well with various peptide concentrations (0 μM, 5 μM, 25 μM). Transwell inserts were fixed using 4% paraformaldehyde after 48 h cell invasion, and crystalline violet was used for staining. The quantities of invading cells were quantified using ImageJ software (NIH).

[2] = target: T1, PDPN recombinant proteins (Homo sapiens, UniProt Q86YL7); experiment: SPR assay, binding to immobilized PDPN; conditions: CM7 chip, 100 μM to 0.00128 μM
T1 construct: PDPN recombinant proteins were coated on the CM7 sensor chip
T1 sequence (Q86YL7 23-162): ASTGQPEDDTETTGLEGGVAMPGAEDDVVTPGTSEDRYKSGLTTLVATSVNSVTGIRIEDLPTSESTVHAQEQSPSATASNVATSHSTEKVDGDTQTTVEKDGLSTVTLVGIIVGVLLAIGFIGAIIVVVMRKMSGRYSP
Experimental: SPR assay was conducted on a GE Biacore 3000 (Cytiva, USA) using a CM7 sensorchip for protein immobilization. All experimental steps were performed at a temperature of 24 °C and samples were kept at 4 °C. CY12-RP1 and CY12-RP2 peptides were diluted in the running buffer ([…] saline buffer, HBS-EP) at the final concentrations ranging from 100 μM to 0.00128 μM. The peptides were injected at a rate of 30 μL/min through immobilized PDPN for 240 s for association. All regenerations were introduced at a flow rate of 30 µL/min. SPR assay was performed in triplicate and the results were analyzed using Biacore 3000 software.
To further investigate the potential anti-tumor effect of PDPN antagonist on melanoma, we used a Ph.D.TM-12 Phage Display Peptide Library to screen for a PDPN antagonist peptide. After four rounds of biopanning under progressively stringent selection conditions in vitro, seven clones with individual amino acid sequences were obtained (Fig. 3A). To assess the anti-tumor effects of these seven peptides on melanoma cells, the proliferation of A375 and A875 cell lines after treating with various concentration peptides were examined by CCK8 assay. […] We then performed immunofluorescence, SPR assay, and flow cytometry to identify the binding specificity of CY12-RP1 and CY12-RP2 with PDPN in melanoma cells. […]

CC(C)C[C@H](NC(=O)[C@H](Cc1ccc(O)cc1)NC(=O)[C@@H](N)[C@@H](C)O)C(=O)N[C@@H](CS)C(=O)N[C@H](C(=O)N[C@@H](C)C(=O)N[C@@H](CS)C(=O)N[C@@H](CC(=O)O)C(=O)N[C@@H](Cc1ccc(O)cc1)C(=O)N[C@H](C(=O)N[C@@H](Cc1c[nH]cn1)C(=O)N[C@@H](Cc1c[nH]cn1)C(=O)O)[C@@H](C)O)[C@@H](C)O [CY12-RP2] (H-TYLCTACDYTHH-OH; N-terminus and C-terminus assumed)
relative spheroid diameter (A875 cellular spheroids): only a high concentration of CY12-RP2 (200 μM) could decrease the diameter
M2-type macrophages ([1]; immunofluorescence): decreased proportion
NK cells and M1-type macrophages ([1]; immunofluorescence): increased proportions
infiltration of CD3 + CD4 + T cells and CD3 + CD8 + T cells ([1]; multiplex immunofluorescence): remarkable increase
infiltration of Treg cells ([1]; multiplex immunofluorescence): reduction
invasion (A875 cells): could only be inhibited at high concentrations
binding to PDPN (in words) [2]: bound to PDPN in a dose-dependent manner
